The text below walks through data of US4260682A, “High sensitivity assays for angiotensin converting enzyme” (priority 1979, dated 1981).

Peptide text beside a SMILES is read from it. * marks the point of attachment. Bz = O=C(c1ccccc1)*

Data set [1] has as its system enzyme isolated from hog lung (ACE). The following applies: cited from earlier work.
Data set [2] relates to ACE. The experiment in a line: Sulfate and chloride effects on ACE catalysed hydrolysis (general description). In kind it is biochemical. From the text: An assay for ACE, using HipHisLeu as substrate, is herewith described. The assay is more sensitive than any heretofore disclosed using HipHisLeu as substrate. Maximum sensitivity is achieved by the inclusion of sulfate ions, preferably as sodium sulfate, in the reaction mixture. When 0.1 M NaCl is present in the reaction mixture, sulfate ions are stimulatory from 0.1 M to at least 1.1 M. Maximum stimulation occurs in the range from 0.75 M to 1.1 M Na2 SO4.
(§1) An even more sensitive assay for ACE activity has been developed using the novel compound ^3 H-benzoylPheAlaPro as substrate. This new substrate can be used to assay ACE in human urine in incubations as short as 15 minutes. The response of this substrate to ions is strikingly different from the response of HipHisLeu. […] This difficulty has been solved by the proper choice of extracting solvent. While a variety of organic solvents may be suitable for the extraction step, it is preferred to employ toluene. Approximately 88% of ^3 H-benzoylPhe enters the toluene phase while only 6% of the unhydrolyzed substrate enters the toluene phase, when toluene and the acidified reaction mixture are in approximately equal volumes at room temperatures.
(§2) The enzyme is active over a broad pH range with a maximum around pH 8.0, but is at least about 50% active in the range pH 7.0-pH 8.8, for both HipHisLeu and benzoylPheAlaPro. Although the enzyme is active in a variety of buffer systems known in the art, it is preferred for convenience, when using benzoylPheAlaPro as substrate, to conduct the assays in 0.05 M Hepes buffer, pH 8.0 containing 0.15 M sodium chloride. Detailed protocols for carrying out the assay are given in the examples. […] The preferred concentration range is 1×10^-9 M to 7×10^- 5 M.

For the next data set, the system named is ACE from rabbit lung. Conditions: HipHisLeu as substrate; cited from earlier work.
Data set [3] is described as follows: Extraction from the acidified reaction mixture into organic solvent. It counts as physicochemical. The following applies: toluene and acidified reaction mixture in approximately equal volumes, room temperature. How it is done: as §1
Data set [4] concerns the target ACE (Homo sapiens, UniProt P12821). Briefly: Comparison of sensitivity of ACE radioassays. In kind it is biochemical. From the text:
A comparison of the sensitivity of the disclosed assay methods with each other and with prior art assays may be made by considering assays which depend upon measuring the radioactivity of the remnant reaction product. A prior art assay of this type, using ^3 H-HipGlyGly as substrate has been described (Ryan and Chung, supra). Of the two assays disclosed herein, the sulfate stimulated hydrolysis of ^3 H-HipHisLeu is approximately 20 times more sensitive, and the ^3 H-benzoylPheAlaPro assay is about 10 times more sensitive still. The latter is therefore approximately 200 times more sensitive than the assay using ^3 H-HipGlyGly.

Another data set addresses T1, Guinea pig urinary ACE (Cavia porcellus, UniProt H0UWL7).
T1 sequence (H0UWL7 33-1302): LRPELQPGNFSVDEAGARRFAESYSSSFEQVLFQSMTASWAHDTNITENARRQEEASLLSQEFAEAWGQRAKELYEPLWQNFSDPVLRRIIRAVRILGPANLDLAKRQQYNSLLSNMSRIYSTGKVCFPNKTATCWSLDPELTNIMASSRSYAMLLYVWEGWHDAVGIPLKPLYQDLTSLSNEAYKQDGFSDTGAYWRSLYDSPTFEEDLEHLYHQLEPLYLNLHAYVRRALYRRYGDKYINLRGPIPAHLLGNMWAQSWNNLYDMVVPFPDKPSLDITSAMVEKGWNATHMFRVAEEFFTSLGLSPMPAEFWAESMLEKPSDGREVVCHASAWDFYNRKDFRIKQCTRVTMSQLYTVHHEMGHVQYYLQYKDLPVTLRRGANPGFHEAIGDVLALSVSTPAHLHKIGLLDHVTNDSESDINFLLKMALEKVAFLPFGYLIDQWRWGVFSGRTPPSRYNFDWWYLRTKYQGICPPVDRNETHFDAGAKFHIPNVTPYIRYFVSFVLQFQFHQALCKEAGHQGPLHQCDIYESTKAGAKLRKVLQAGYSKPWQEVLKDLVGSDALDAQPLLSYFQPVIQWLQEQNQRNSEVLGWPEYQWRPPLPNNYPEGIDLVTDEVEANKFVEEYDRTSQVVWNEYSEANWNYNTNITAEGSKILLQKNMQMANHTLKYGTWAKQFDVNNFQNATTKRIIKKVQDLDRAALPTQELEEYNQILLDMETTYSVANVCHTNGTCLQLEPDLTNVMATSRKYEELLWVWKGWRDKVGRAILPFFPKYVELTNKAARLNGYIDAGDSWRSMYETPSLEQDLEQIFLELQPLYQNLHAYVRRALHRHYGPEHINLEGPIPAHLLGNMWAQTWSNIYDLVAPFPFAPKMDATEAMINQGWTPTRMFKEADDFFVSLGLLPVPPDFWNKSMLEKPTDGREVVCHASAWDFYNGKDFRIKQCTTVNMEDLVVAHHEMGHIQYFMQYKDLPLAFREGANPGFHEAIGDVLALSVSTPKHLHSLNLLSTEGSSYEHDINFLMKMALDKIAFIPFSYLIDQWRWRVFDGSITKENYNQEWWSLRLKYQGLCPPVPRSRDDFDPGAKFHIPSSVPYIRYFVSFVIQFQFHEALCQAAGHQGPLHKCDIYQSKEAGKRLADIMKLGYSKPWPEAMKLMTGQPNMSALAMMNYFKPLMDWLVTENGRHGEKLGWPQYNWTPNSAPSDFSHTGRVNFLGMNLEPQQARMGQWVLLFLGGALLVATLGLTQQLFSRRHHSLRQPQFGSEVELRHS
Briefly: Sulfate and chloride effects on ACE catalysed substrate hydrolysis. It counts as biochemical. Conditions: 0.05 Hepes, pH 8.0, 0.15M HCl.

Data set [5] relates to ACE. The experiment in a line: pH dependence of ACE activity. In kind it is biochemical.
Source text: as §2

The target of data set [6] is T2, Guinea pig serum ACE (Cavia porcellus, UniProt H0UWL7).
T2 sequence (H0UWL7 33-1234): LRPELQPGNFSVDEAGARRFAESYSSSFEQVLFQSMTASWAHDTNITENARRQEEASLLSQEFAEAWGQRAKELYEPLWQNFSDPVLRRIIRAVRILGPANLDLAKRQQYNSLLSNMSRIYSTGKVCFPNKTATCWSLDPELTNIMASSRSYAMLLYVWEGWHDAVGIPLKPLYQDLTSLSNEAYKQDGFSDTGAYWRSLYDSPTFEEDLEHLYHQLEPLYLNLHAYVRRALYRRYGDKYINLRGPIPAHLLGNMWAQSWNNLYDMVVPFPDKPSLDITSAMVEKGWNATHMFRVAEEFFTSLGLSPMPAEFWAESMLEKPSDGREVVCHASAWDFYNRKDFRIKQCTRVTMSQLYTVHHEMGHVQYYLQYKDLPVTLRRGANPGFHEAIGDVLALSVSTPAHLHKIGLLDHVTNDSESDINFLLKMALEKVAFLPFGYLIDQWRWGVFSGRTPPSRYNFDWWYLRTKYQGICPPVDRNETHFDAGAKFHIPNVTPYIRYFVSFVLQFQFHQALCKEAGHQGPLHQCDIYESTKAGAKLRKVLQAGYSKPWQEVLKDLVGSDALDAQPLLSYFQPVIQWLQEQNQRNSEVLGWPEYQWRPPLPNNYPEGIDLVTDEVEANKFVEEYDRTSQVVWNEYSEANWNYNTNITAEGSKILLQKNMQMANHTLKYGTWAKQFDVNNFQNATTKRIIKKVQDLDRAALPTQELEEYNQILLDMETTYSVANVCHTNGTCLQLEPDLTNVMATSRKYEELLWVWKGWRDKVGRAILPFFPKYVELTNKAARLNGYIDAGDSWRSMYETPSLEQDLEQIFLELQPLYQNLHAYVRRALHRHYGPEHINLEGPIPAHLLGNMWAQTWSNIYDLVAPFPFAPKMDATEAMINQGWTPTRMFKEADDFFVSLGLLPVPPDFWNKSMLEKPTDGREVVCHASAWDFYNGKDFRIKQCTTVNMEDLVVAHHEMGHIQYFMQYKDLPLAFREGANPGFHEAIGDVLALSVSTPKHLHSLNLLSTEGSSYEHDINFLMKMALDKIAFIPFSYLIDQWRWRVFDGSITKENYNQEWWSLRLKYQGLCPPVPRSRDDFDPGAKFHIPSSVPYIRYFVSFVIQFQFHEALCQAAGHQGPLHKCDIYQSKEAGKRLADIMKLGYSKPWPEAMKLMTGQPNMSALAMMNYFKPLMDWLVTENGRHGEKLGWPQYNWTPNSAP
Briefly: Kinetics of benzoyl-Phe-Ala-Pro hydrolysis. Conditions: for V (reaction velocity): 0.05 M Hepes, pH 8.0, 0.15 M NaCl, 37° C., serum 1:1000.
Protocol: Kinetics of Benzoyl-Phe-Ala-Pro Hydrolysis
The apparent Km for the ACE catalyzed hydrolysis of benzoyl-Phe-Ala-Pro was measured in the following manner. […] Guinea pig serum was diluted 1:1000 to provide the enzyme. A mixture of 50 μl diluted serum and 50 μl of substrate, diluted in the reaction buffer to provide the appropriate substrate concentration for each experiment, was incubated at 37° C. for 10 minutes. At the end of the incubation, 1.0 ml of 0.1 M HCl was added to stop the reaction. The reaction mixture was then extracted with 1.0 ml toluene, and a 0.5 ml aliquot of the toluene phase was counted in a scintillation counter.

The target of data set [7] is T2, Guinea pig serum ACE. Briefly: Kinetics of (sulfate-stimulated) HipHisLeu hydrolysis. It counts as biochemical. The following applies: 0.05 M Hepes, pH 8.0, 0.1 M NaCl, 0.75 M Na2 SO4; Lineweaver and Burke plot. How it is done: Kinetics of Sulfate-Stimulated HipHisLeu Hydrolysis
In each assay, 50 μl of Guinea pig serum diluted 1-20 (v/v) in the reaction buffer was mixed with 50 μl of buffer containing sufficient ^3 H-HipHisLeu to provide approximately 100,000 cpm total, together with sufficient unlabeled HipHisLeu to produce the desired substrate concentrations, as indicated in Table 2. […] The reaction mixture was then extracted with 1 ml ethyl acetate. 500 μl of the ethyl acetate fraction was sampled and counted in a scintillation counter.

[8] abbreviates: sulfate ion 0.6 M, 0.1 M chloride, pH 8.

Sequence of ACE (Homo sapiens, UniProt P12821) (P12821 30-1306, species assumed): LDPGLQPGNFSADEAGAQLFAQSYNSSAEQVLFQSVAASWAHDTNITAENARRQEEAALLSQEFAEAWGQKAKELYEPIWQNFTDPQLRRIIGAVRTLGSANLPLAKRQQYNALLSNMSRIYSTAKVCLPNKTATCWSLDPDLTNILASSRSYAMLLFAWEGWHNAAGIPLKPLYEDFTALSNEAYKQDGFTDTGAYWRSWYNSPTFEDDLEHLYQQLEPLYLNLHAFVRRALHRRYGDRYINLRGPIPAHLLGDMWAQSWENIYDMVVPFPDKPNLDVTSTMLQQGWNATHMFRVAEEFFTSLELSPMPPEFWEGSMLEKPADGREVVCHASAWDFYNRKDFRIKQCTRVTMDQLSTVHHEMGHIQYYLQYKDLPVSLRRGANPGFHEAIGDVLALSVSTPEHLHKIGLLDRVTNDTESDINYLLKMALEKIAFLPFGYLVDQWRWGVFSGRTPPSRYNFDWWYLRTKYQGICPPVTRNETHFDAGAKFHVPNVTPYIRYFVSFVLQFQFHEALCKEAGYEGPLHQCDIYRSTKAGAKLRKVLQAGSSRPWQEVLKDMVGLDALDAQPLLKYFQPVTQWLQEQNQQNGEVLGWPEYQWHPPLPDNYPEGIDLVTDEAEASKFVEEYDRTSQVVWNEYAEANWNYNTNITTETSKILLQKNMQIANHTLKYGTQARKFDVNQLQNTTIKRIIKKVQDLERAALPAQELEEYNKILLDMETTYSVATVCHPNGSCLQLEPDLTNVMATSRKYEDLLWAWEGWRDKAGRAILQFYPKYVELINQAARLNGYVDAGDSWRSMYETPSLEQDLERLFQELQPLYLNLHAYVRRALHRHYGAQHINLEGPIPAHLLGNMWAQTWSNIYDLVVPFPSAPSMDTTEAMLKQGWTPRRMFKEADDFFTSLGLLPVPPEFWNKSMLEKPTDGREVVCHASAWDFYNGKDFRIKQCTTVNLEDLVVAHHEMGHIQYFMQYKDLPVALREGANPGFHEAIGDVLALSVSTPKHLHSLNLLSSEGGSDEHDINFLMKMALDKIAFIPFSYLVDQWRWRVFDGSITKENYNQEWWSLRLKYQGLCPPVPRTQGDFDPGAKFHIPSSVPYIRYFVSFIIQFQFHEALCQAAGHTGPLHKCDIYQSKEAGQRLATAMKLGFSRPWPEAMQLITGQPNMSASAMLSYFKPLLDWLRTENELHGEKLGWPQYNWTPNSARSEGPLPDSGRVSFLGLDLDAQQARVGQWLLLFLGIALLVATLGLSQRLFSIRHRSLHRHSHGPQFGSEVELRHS

Turning to `O=C(O)CNC(=O)CNC(=O)CNC(=O)c1ccccc1` [HipGlyGly] (Bz-Gly-Gly-Gly-OH), in [1] (Na2 SO4 0.001 M to 0.6 M), the “hydrolysis in the absence of NaCl” value is listed as “no hydrolysis”. Also, in data set [1] (setting [8]), the “decrease of Km” value is on record as “about 15%” and the “increase of Vmax” value was “about 5 fold”. Moreover, the “dependence of hydrolysis on added chloride” value with ACE [2] (sulfate present) was “remains dependent upon the presence of added chloride for activity”.

With `[Cl-].[Cl-].[Mg+2]` [MgCl2], the “ability to meet the chloride requirement” value with ACE from rabbit lung was “could be met”.

For the molecule `O=S(=O)([O-])[O-].[Na+].[Na+]` [Na2 SO4, sodium sulfate], in the data set on ACE from rabbit lung, the “ability to meet the chloride requirement” value was “not”. Further, the “reaction rate vs. buffer containing 0.1 M NaCl and lacking Na2 SO4” value in the data set on ACE [2] (0.9 M to 1.2 M Na2 SO4, no added NaCl, 0.05 M Hepes, pH 8.0, HipHisLeu) is given as “faster”. The “stimulation by sodium sulfate” value with ACE [2] (^3 H-benzoylPheAlaPro as substrate) is “not stimulatory”.

For the molecule `[Cl-].[Na+]` [NaCl, sodium chloride], the “effect of NaCl on reaction velocity of ^3 H-benzoylPheAlaPro” value in the data set on ACE [2] (0.01 M added NaCl) is “increases reaction velocity”. Besides, the “increase of apparent reaction velocity of ^3 H-benzoylPheAlaPro” value with ACE [2] (0.05 M added sodium chloride) is reported as “approximately 3 fold”. In addition, in the data set on ACE [2] (NaCl 0.75 to 1.1 M), the “effect on ACE catalyzed hydrolysis of HipHisLeu” value is on record as “seriously inhibits”. Also, the “further increase of reaction velocity of ^3 H-benzoylPheAlaPro” value in the data set on ACE [2] (additional sodium chloride, up to 0.5 M) is on record as “little further increase”.

On to `[3H]c1ccc(C(=O)N[C@@H](Cc2ccccc2)C(=O)O)cc1` [^3 H-benzoylPhe], for which, in data set [3], the “fraction entering the toluene phase” value is reported as “Approximately 88%”.

For `C[C@H](NC(=O)[C@H](Cc1ccccc1)NC(=O)c1ccccc1)C(=O)N1CCC[C@H]1C(=O)O` [benzoylPheAlaPro, benzoyl-Phe-Ala-Pro] (Bz-Phe-Ala-Pro-OH), at ACE [4], the “sensitivity relative to the sulfate-stimulated HipHisLeu assay” value is given as “ten to twenty”. Moreover, the “Reaction Velocity, Per Cent of Substrate Hydrolyzed in 10 minutes” value came out at 4.4 Per Cent on Guinea pig urinary ACE (Na2 SO4 0 M); 5.0 Per Cent on Guinea pig urinary ACE (Na2 SO4 0.1 M); 4.45 Per Cent on Guinea pig urinary ACE (Na2 SO4 0.2 M); 4.85 Per Cent on Guinea pig urinary ACE (Na2 SO4 0.3 M); 5.6 Per Cent at Guinea pig urinary ACE (Na2 SO4 0.5 M). In the data set on ACE [5], the “pH of maximum activity” value is about 8.0 pH. Moreover, the “activity of enzyme (relative to maximum)” value with ACE [5] (range pH 7.0-pH 8.8) is listed as “at least 50%”. The 1/V at Guinea pig serum ACE [6] (BenzPheAlaPro 1.0 μM) is on record as 1.50 pmole^-1 · min .multi; at Guinea pig serum ACE [6] (BenzPheAlaPro 5.0 μM), 0.48 pmole^-1 · min .multi; at Guinea pig serum ACE [6] (BenzPheAlaPro 10.0 μM) it was 0.24 pmole^-1 · min .multi; at Guinea pig serum ACE [6] (BenzPheAlaPro 66.7 μM), 0.11 pmole^-1 · min .multi. The V (reaction velocity) amounted to 0.67 pmol/min/mL on Guinea pig serum ACE [6] (BenzPheAlaPro 1.0 μM), 2.08 pmol/min/mL at Guinea pig serum ACE [6] (BenzPheAlaPro 5.0 μM), 4.17 pmol/min/mL at Guinea pig serum ACE [6] (BenzPheAlaPro 10.0 μM) and 9.09 pmol/min/mL on Guinea pig serum ACE [6] (BenzPheAlaPro 66.7 μM). Also, the “sensitivity of Km to the presence of sulfate” value on Guinea pig serum ACE [6] (sulfate present) was “relatively insensitive to the presence of sulfate”.

Turning to ^3 H-HipHisLeu, the Km at Guinea pig serum ACE [7] came out at 177 µM. Also, on ACE [4] (radioactivity of remnant product, HipHisLeu assay sulfate stimulated), the “sensitivity relative to the assay using ^3 H-HipGlyGly” value is “approximately 20 times”.

For orientation: Km means the concentration of substrate that gives half-maximal velocity.
